Test [1] has as its target T1, Recombinant IDO1 (Homo sapiens, UniProt P14902).
T1 construct: His tag (N); made in house; host or cells: E. coli
Put plainly: IDO1 enzymatic assay. Format: biochemical. The conditions noted are these: 50 nM IDO1, 1.3 mM D-tryptophan, read-out: Enzyme IC50 (nM) IDO1. The procedure: Recombinant IDO1 was overexpressed and purified from E. coli cells with an N-terminal His tag. IDO1 enzymatic assay was carried out using a methodology similar to described in the literature (J. Biol. Chem. (1980), 255, 1339-1345.). The reaction mixture contains 50 nM IDO1, 1.3 mM D-tryptophan, 5 mM L-ascorbic acid, 6.25 μM methylene Blue, 0.4 mg/mL catalase and compound (or DMSO) in a buffer containing 50 mM potassium phosphate pH 7.5 and 0.1% BSA. After incubation at 24° C. for 1.5 hours, absorbance of the reaction mixture was continuously read at 321 nm to monitor the formation of N′-formylkynurenine by a FULOstar OMEGA plate reader (BMG LABTECH) for 1 hour. The enzymatic activity was determined by measuring the slope of the linear absorbance increase as a function of time. The IC50s are calculated based on remaining enzyme activity in the presence of increasing concentrations of compounds.

The target of test [2] is T2, cellular IDO1 in HeLa cells (Homo sapiens, UniProt P14902).
T2 construct: endogenous in cells; host or cells: HeLa cells (American Type Tissue Culture Collection), induced with human recombinant IFN-γ
T2 sequence (P14902 whole entry): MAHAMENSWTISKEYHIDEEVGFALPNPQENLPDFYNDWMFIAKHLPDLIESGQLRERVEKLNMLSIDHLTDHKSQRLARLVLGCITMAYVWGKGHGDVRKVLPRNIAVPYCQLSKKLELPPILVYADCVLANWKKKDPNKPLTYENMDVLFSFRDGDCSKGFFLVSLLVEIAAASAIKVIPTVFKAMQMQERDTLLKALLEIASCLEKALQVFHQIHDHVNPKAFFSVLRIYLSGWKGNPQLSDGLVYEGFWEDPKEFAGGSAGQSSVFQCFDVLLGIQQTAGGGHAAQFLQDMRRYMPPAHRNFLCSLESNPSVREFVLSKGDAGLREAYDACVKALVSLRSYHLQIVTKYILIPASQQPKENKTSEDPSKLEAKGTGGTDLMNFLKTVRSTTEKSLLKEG
Put plainly: HeLa cell-based IDO1 Kyn (kynurenine) production assay. The conditions noted are these: IFN-γ 100 ng/mL, 48 hours. The procedure: HeLa Cell-Based IDO1 Kyn (Kynurenine) Production Assay:
The inhibitory activity of IDO1 inhibitors is determined by using a colorimetric reaction to measure Kyn generated from L-Trp (L-Tryptophon) oxidation by cellular IDO1 in HeLa cells after induction of IDO1 by IFN-γ.
Hela cells were obtained from the American Type Tissue Culture Collection and recovered in 10% FBS-containing phenol red-free DMEM medium supplemented with 0.4 mM L-Trp. Cells were plated onto a 96-well plate (100 μl/well) at 8000 cells per well. Human recombinant IFN-γ (8901SC, CST) was added to cells (final concentration 100 ng/mL) to stimulate endogenous IDO1. Compounds at different concentrations diluted in dimethylsulfoxide (DMSO) were added simultaneously with IFN-γ. Cells were kept at 37° C. in a humidified incubator supplied with 5% CO2. After 48 hours of incubation, 100 μl supernatant from each well was removed to a new plate. The protein in the medium was precipitated with the addition of 8 μl 6N trichloroacetic acid. The plate was incubated at 60° C. for 45 min and then centrifugation at 2500 rpm for 10 min to remove sediments. 80 μl supernatants were carefully removed to a new clean plate and added with an equal volume of 2% 4-(Dimethylamino) benzaldehyde (D2004, sigma) dissolved in glacial acetic acid. The absorbance at 480 nm wavelength derived from Kyn was measured using a FULOstar OMEGA plate reader (BMG LABTECH). The IC50 for each compound was derived from fitting the dose-response data to the four-parameter logistic model by using Graphpad Prism software.

Setting [3] is: Table 1, 5-substituted imidazo[1,5-a]pyridines.
The mark [4] stands for this setting: Table 2, 8-substituted imidazo[1,5-a]pyridines.

Structures can show the parent of a compound that is named as a salt. Where two headings read alike, the source gives them in different places.

Results on 36 compounds are retold here after patent US10280163B2 (BeiGene, Ltd., priority 2015, dated 2019).

In general, IC50 refers to the concentration needed to halve the response being measured. For orientation: EC50 means the concentration at which the effect is half-maximal. A high value points to a need for much substance.

T1 sequence (P14902 whole entry): as above

As for “1-(7-bromo-8-chloroimidazo[1,5-a]pyridin-5-yl)-2-cyclohexylethan-1-ol [Example A147]”, the IC50 in test [1] (setting [3]) worked out at 420 nM. The compound also displayed a concentration for a half-maximal effect (EC50) in test [2] (setting [3]) of 2790 nM.
For the compound `OC(c1c(C2CC2)ccn2cncc12)C1CCC(c2ccccc2)CC1` (mixture of isomers) [Example B143, (7-cyclopropylimidazo[1,5-a]pyridin-8-yl)(4-phenylcyclohexyl)methanol], the IC50 in test [1] (setting [4]) was found to be 100 nM. In addition, in test [2] (setting [4]), the EC50 came out at 149 nM.
With `OC1CCCC(C(O)c2c(C3CC3)ccc3cncn23)C1` (racemic) [Example A164a, 3-((6-Cyclopropylimidazo[1,5-a]pyridin-5-yl)(hydroxy)methyl)cyclohexan-1-ol], the IC50 in test [1] (setting [3]) was 71 nM. This compound returned an EC50 in test [2] (setting [3]) of 598 nM.
The matching figures for `OC1CCCC(C(O)c2c(C3CC3)ccc3cncn23)C1` (racemic) [Example A164c, 3-((6-Cyclopropylimidazo[1,5-a]pyridin-5-yl)(hydroxy)methyl)cyclohexan-1-ol]: 54 nM and 570 nM.
For the compound `OC(c1c([C@H]2C[C@H]2F)ccn2cncc12)C1CCCCC1` (mixture of isomers) [Example B126b, cyclohexyl(7-(cis-2-fluorocyclopropyl)imidazo [1,5-a]pyridin-8-yl)methanol], the IC50 in test [1] (setting [4]) was found to be 340 nM. The EC50 in test [2] (setting [4]) turned out to be 676 nM.
Consider `OC(CC1CCCCC1)c1c([C@H]2C[C@H]2F)ccn2cncc12` (mixture of isomers) [Example B127b, 2-Cyclohexyl-1-(7-(cis-2-fluorocyclopropyl)imidazo[1,5-a]pyridin-8-yl)ethan-1-ol], for which, in test [1] (setting [4]), the IC50 came out at 93 nM. In test [2] (setting [4]), this compound gave an EC50 of 1130 nM.
On to `OC(c1c([C@H]2C[C@@H]2F)ccn2cncc12)C1CCCCC1` (mixture of isomers) [Example B128a, Cyclohexyl(7-((trans)-2-fluorocyclopropyl)imidazo[1,5-a]pyridin-8-yl)methanol], for which the IC50 in test [1] (setting [4]) worked out at 100 nM. The compound further showed an EC50 in test [2] (setting [4]) of 184 nM.
The matching figures for `OC(c1c([C@H]2C[C@H]2F)ccn2cncc12)C1CCCCC1` (relative stereo) [Example B126a, cyclohexyl(7-(cis-2-fluorocyclopropyl)imidazo [1,5-a]pyridin-8-yl)methanol]: 340 nM and 942 nM.
The matching figures for `OC(CC1CCCCC1)c1c([C@H]2C[C@H]2F)ccn2cncc12` (relative stereo) [Example B127a, 2-Cyclohexyl-1-(7-(cis-2-fluorocyclopropyl)imidazo[1,5-a]pyridin-8-yl)ethan-1-ol]: 88 nM and 595 nM.
For `OC(c1cccc2cncn12)C1CCCCC1` (single isomer, unassigned) [Example A001b], the IC50 in test [1] (setting [3]) was determined as 11000 nM.
For `OC1CCC(C(O)c2c(C3CC3)ccc3cncn23)CC1` (single isomer, unassigned) [Example A142b], the half-maximal inhibitory concentration (IC50) in test [1] (setting [3]) was found to be 31 nM. This compound gave an EC50 in test [2] (setting [3]) of 312 nM.
The matching figures for `OC1CCC([C@@H](O)c2c(C3CC3)ccc3cncn23)CC1` (single isomer, unassigned) [Example A142c]: 2000 nM and more than 10000 nM.
The corresponding values for `OC1CCC([C@@H](O)c2c(C3CC3)ccc3cncn23)CC1` (single isomer, unassigned) [Example A142d] are 9200 nM and more than 10000 nM.
For the compound `CC(C)c1ccn2cncc2c1C(O)C1CCCCC1` (single isomer, unassigned) [Example B106a], the IC50 in test [1] (setting [4]) is 23 nM. In test [2] (setting [4]), this compound came in with an EC50 of 129 nM.
The corresponding values for `CC(C)c1ccn2cncc2c1C(O)C1CCCCC1` (single isomer, unassigned) [Example B106b] are 1800 nM and more than 10000 nM.
The corresponding values for `OC(CC1CCCCC1)c1c(C2CC2)ccn2cncc12` (single isomer, unassigned) [Example B110a] are 18 nM and 215 nM.
The matching figures for `OC(CC1CCCCC1)c1c(C2CC2)ccn2cncc12` (single isomer, unassigned) [Example B110b]: 4.9 nM and more than 10000 nM.
With `OC(c1c(C2CC2)ccn2cncc12)[C@H]1CC[C@H](O)CC1` (single isomer, unassigned) [Example B119a, (trans)-4-((7-Cyclopropylimidazo[1,5-a]pyridin-8-yl)(hydroxy)methyl)cyclohexan-1-ol], in test [1] (setting [4]), the IC50 worked out at 280 nM. In addition, the EC50 in test [2] (setting [4]) worked out at 1360 nM.
The corresponding values for `OC(c1c(C2CC2)ccn2cncc12)[C@H]1CC[C@H](O)CC1` (single isomer, unassigned) [Example B119b, (trans)-4-((7-Cyclopropylimidazo[1,5-a]pyridin-8-yl)(hydroxy)methyl)cyclohexan-1-ol] are 5500 nM and more than 10000 nM.
The matching figures for `OC(c1c(C2CC2)ccn2cncc12)[C@H]1CC[C@@H](O)CC1` (single isomer, unassigned) [Example B119c]: 7700 nM and more than 10000 nM.
The corresponding values for `OC(c1c(C2CC2)ccn2cncc12)[C@H]1CC[C@@H](O)CC1` (single isomer, unassigned) [Example B119d] are 110 nM and 2990 nM.
In the case of `OC(c1cccc2cncn12)C1CCCC1` (centres unmarked) [Example A002, cyclopentyl(imidazo[1,5-a]pyridin-5-yl)methanol], in test [1] (setting [3]), the IC50 is 150 nM.
As to `OC(c1cccc2cncn12)C1CC1` (centres unmarked) [Example A003, cyclopropyl(imidazo[1,5-a]pyridin-5-yl)methanol], the IC50 in test [1] (setting [3]) stood at 3800 nM.
On the same count and under the same terms, to `C#CC(O)c1cccc2cncn12` (centres unmarked) [Example A006, 1-(imidazo[1,5-a]pyridin-5-yl)prop-2-yn-1-ol] belongs 4600 nM.
On to `OC(c1ccccc1)c1cccc2cncn12` (centres unmarked) [Example A007, imidazo[1,5-a]pyridin-5-yl(phenyl)methanol], for which the IC50 in test [1] (setting [3]) stood at 5100 nM.
Still for that read-out and setting: to `OC(c1cccc2cncn12)C1CCOCC1` (centres unmarked) [Example A010, imidazo[1,5-a]pyridin-5-yl(tetrahydro-2H-pyran-4-yl)methanol] belongs 3100 nM.
Same read-out and setting: to `CC(C)(C)OC(=O)N1CCC(C(=O)c2cccc3cncn23)CC1` [Example A011, Tert-butyl 4-(imidazo[1,5-a]pyridine-5-carbonyl)piperidine-1-carboxylate] belongs more than 100000 nM.
The same measure, in the same setting: with `CC(C)(C)OC(=O)N1CCC(C(O)c2cccc3cncn23)CC1` (centres unmarked) [Example A012, Tert-butyl 4-(hydroxy(imidazo[1,5-a]pyridin-5-yl)methyl)piperidine-1-carboxylate] the figure was 41000 nM; with `OC(c1cccc2cncn12)C1CCNCC1` (centres unmarked) [Example A013, Imidazo[1,5-a]pyridin-5-yl(piperidin-4-yl)methanol hydrochloride], more than 100000 nM.
Consider `CN1CCC(C(O)c2cccc3cncn23)CC1` (centres unmarked) [Example A014, Imidazo[1,5-a]pyridin-5-yl(1-methylpiperidin-4-yl)methanol], for which the 50% inhibitory concentration (IC50) in test [1] (setting [3]) is more than 100000 nM.
On the same count and under the same terms, to `CC(O)c1cccc2cncn12` (centres unmarked) [Example A017, 1-(imidazo[1,5-a]pyridin-5-yl)ethan-1-ol] belongs 62000 nM; to `OC(c1cccc2cncn12)C1CCC1` (centres unmarked) [Example A018, cyclobutyl(imidazo[1,5-a]pyridin-5-yl)methanol], 1800 nM.
On the same count and under the same terms, to `OC(Cc1ccccc1)c1cccc2cncn12` (centres unmarked) [Example A019, 1-(imidazo[1,5-a]pyridin-5-yl)-2-phenylethan-1-ol] belongs 21000 nM.
On the same count and under the same terms, with `OC(c1ccc(Br)c2cncn12)C1CCCCC1` (centres unmarked) [Example A023, (8-bromoimidazo[1,5-a]pyridin-5-yl)(cyclohexyl)methanol] the figure was 6500 nM; with `OC(c1ccc(Cl)c2cncn12)C1CCCCC1` (centres unmarked) [Example A024, (8-chloroimidazo[1,5-a]pyridin-5-yl)(cyclohexyl)methanol], 3300 nM.
Regarding `O=C(c1ccccc1)c1cccn2cncc12` [Example B003, Imidazo[1,5-a]pyridin-8-yl(phenyl)methanone], the IC50 in test [1] (setting [4]) is more than 100000 nM.
